Measurements: patent US20060069132A1, “Azolecarboxamide herbicides” (priority 2004, published 2006)

Legend:
[1] = test system: barnyardgrass; test: Test B flooded paddy test; type: in vivo, Echinochloa crus-galli; details: scale 0 to 100 (0 no effect, 100 complete control); for Barnyardgrass plant response rating: 1000 g ai/ha
Procedure, shortened: (§1)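 Visual ratings, 0 (no effect) to 100 (complete control), made versus controls after 13–15 d greenhouse. Paddy plants treated at 2-leaf stage; postemergence plants at 1- to 4-leaf stage, 2–18 cm tall.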

[2] = test system: pigweed; test: Test B pre-/postemergence herbicide test; type: in vivo, Amaranthus retroflexus; details: for Pigweed plant response rating: postemergence
Procedure, shortened: (§2)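 Flooded paddy rice and barnyardgrass were treated at the 2-leaf stage; upland plantings received compound either on sown seed or on 1- to 4-leaf seedlings. All were kept 13–15 days in a greenhouse and scored visually, 0–100, relative to untreated plants.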

[3] = test system: morningglory; test: Test B pre-/postemergence herbicide test; type: in vivo, Ipomoea coccinea; details: for Morningglory plant response rating: postemergence
Procedure, shortened: (§3)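 Visual rating, 0 (no effect) to 100 (complete control), versus untreated controls after 13–15 d in greenhouse. Pre- and postemergence applications (postemergence plants 2–18 cm, 1–4 leaves); flooded paddy arm at 2-leaf stage. Compounds in non-phytotoxic solvent plus surfactant.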

[4] = test system: small flower umbrella sedge; test: Test B flooded paddy test; type: in vivo, Cyperus difformis; details: scale 0 to 100 (0 no effect, 100 complete control); for Sedge, Umbrella plant response rating: 1000 g ai/ha
Procedure, shortened: as §1

[5] = test system: giant foxtail; test: Test B pre-/postemergence herbicide test; type: in vivo, Setaria faberi; details: for Foxtail, Giant plant response rating: postemergence
Procedure, shortened: as §2

[6] = test system: ducksalad; test: Test B flooded paddy test; type: in vivo, Heteranthera limosa; details: scale 0 to 100 (0 no effect, 100 complete control); for Ducksalad plant response rating: 1000 g ai/ha
Procedure, shortened: as §1

[7] = test system: corn; test: Test B pre-/postemergence herbicide test; type: in vivo, Zea mays; details: for Corn plant response rating: postemergence
Procedure, shortened: as §2

[8] = test system: rice; test: Test B flooded paddy test; type: in vivo, Oryza sativa; details: scale 0 to 100 (0 no effect, 100 complete control); for Rice plant response rating: 1000 g ai/ha
Procedure, shortened: (§4)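 After treating 2-leaf paddy plants or 2–18 cm postemergence plants (1 to 4 leaves) with formulated chemical, researchers kept them in a greenhouse for 13–15 days. Effects were judged visually versus controls: 0 indicates none, 100 total control.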

[9] = test system: blackgrass; test: Test B postemergence herbicide test; type: in vivo, Alopecurus myosuroides; details: postemergence
Procedure, shortened: as §1

[10] = test system: wheat; test: Test B postemergence herbicide test; type: in vivo, Triticum aestivum; set-up: key to Wheat plant response rating: 0 = no effect, 100 = complete control; details: postemergence
Procedure, shortened: as §4

[11] = test system: barnyardgrass; test: Test B pre-/postemergence herbicide test; type: in vivo, Echinochloa crus-galli; details: for Barnyardgrass plant response rating: postemergence
Procedure, shortened: as §3

[12] = test system: large crabgrass; test: Test B pre-/postemergence herbicide test; type: in vivo, Digitaria sanguinalis; details: for Crabgrass, Large plant response rating: postemergence
Procedure, shortened: as §2

[13] = test system: wild oat; test: Test B postemergence herbicide test; type: in vivo, Avena fatua; details: postemergence
Procedure, shortened: as §4

[14] = test system: cocklebur; test: Test B pre-/postemergence herbicide test; type: in vivo, Xanthium strumarium; details: for Cocklebur plant response rating: postemergence
Procedure, shortened: as §3

[15] = test system: Surinam grass; test: Test B pre-/postemergence herbicide test; type: in vivo, Urochloa decumbens; details: for Surinam Grass plant response rating: postemergence
Procedure, shortened: as §2

[16] = test system: velvetleaf; test: Test B pre-/postemergence herbicide test; type: in vivo, Abutilon theophrasti; details: for Velvetleaf plant response rating: postemergence
Procedure, shortened: as §2

[17] = 125 g ai/ha, 0 = no effect, 100 = complete control, preemergence
[18] = 125 g ai/ha, visual rating, scale 0 (no effect) to 100 (complete control)
[19] = 500 g ai/ha, visual rating, 0 = no effect, 100 = complete control, preemergence
[20] = 500 g ai/ha, scale 0 to 100, 0 is no effect, 100 is complete control
[21] = 125 g ai/ha, 0 is no effect, 100 is complete control, preemergence

## CCN(C)C(=O)c1ccc(F)c(NC(=O)C2CC(C(C)(C)C)=NN2CC)c1 (racemic) [Compound 307]
[1]
  Barnyardgrass plant response rating: 90
[2]; [17]
  Pigweed plant response rating (0 to 100 scale): 100
[2]; [18]
  Pigweed plant response rating: 50
[2]; [19]
  Plant response rating, Pigweed: 100
[2]; [20]
  Pigweed plant response rating: 60
[3]; [17]
  Morningglory plant response rating (0 to 100 scale): 0
[3]; [18]
  Morningglory plant response rating: 0
[3]; [19]
  Plant response rating, Morningglory: 10
[3]; [20]
  Morningglory plant response rating: 0
[4]
  Sedge, Umbrella plant response rating: 90
[5]; [17]
  Foxtail, Giant plant response rating (0 to 100 scale): 90
[5]; [18]
  Foxtail, Giant plant response rating: 20
[5]; [19]
  Plant response rating, Foxtail, Giant: 90
[5]; [20]
  Foxtail, Giant plant response rating: 30
[6]
  Ducksalad plant response rating: 80
[7]; [17]
  Corn plant response rating (0 to 100 scale): 70
[7]; [19]
  Plant response rating, Corn: 80
[7]; [20]
  Corn plant response rating: 10
[8]
  Rice plant response rating: 90
[9]; [18]
  Blackgrass plant response rating: 10
[9]; [20]
  Blackgrass plant response rating: 30
[10]; [18]
  Wheat plant response rating: 0
[10]; [20]
  Wheat plant response rating: 20
[11]; [17]
  Barnyardgrass plant response rating (0 to 100 scale): 80
[11]; [18]
  Barnyardgrass plant response rating: 0
[11]; [19]
  Plant response rating, Barnyardgrass: 100
[11]; [20]
  Barnyardgrass plant response rating: 10
[12]; [17]
  Crabgrass, Large plant response rating (0 to 100 scale): 90
[12]; [18]
  Crabgrass, Large plant response rating: 10
[12]; [19]
  Plant response rating, Crabgrass, Large: 100
[12]; [20]
  Crabgrass, Large plant response rating: 30
[13]; [18]
  Oat, Wild plant response rating: 0
[13]; [20]
  Oat, Wild plant response rating: 20
[14]; [17]
  Cocklebur plant response rating (0 to 100 scale): 80
[14]; [18]
  Cocklebur plant response rating: 20
[14]; [19]
  Plant response rating, Cocklebur: 100
[14]; [20]
  Cocklebur plant response rating: 30
[15]; [17]
  Surinam Grass plant response rating (0 to 100 scale): 70
[15]; [18]
  Surinam Grass plant response rating: 10
[15]; [19]
  Plant response rating, Surinam Grass: 90
[15]; [20]
  Surinam Grass plant response rating: 30
[16]; [18]
  Velvetleaf plant response rating: 10
[16]; [19]
  Plant response rating, Velvetleaf: 100
[16]; [20]
  Velvetleaf plant response rating: 60

## CCC1=NN(C(C)(C)C)CC1C(=O)Nc1cc(C(=O)N(C)C)ccc1F (racemic) [Compound 343]
[1]
  Barnyardgrass plant response rating: 90
[2]; [21]
  Plant response rating (0 to 100 scale), Pigweed: 90
[2]; [18]
  Pigweed plant response rating: 40
[2]; [19]
  Plant response rating, Pigweed: 100
[2]; [20]
  Pigweed plant response rating: 90
[3]; [21]
  Plant response rating (0 to 100 scale), Morningglory: 50
[3]; [18]
  Morningglory plant response rating: 30
[3]; [19]
  Plant response rating, Morningglory: 100
[3]; [20]
  Morningglory plant response rating: 80
[4]
  Sedge, Umbrella plant response rating: 90
[5]; [21]
  Plant response rating (0 to 100 scale), Foxtail, Giant: 30
[5]; [18]
  Foxtail, Giant plant response rating: 30
[5]; [19]
  Plant response rating, Foxtail, Giant: 100
[5]; [20]
  Foxtail, Giant plant response rating: 50
[6]
  Ducksalad plant response rating: 90
[7]; [18]
  Corn plant response rating: 10
[7]; [20]
  Corn plant response rating: 30
[8]
  Rice plant response rating: 80
[9]; [18]
  Blackgrass plant response rating: 0
[9]; [20]
  Blackgrass plant response rating: 10
[10]; [18]
  Wheat plant response rating: 0
[10]; [20]
  Wheat plant response rating: 0
[11]; [21]
  Plant response rating (0 to 100 scale), Barnyardgrass: 70
[11]; [18]
  Barnyardgrass plant response rating: 10
[11]; [19]
  Plant response rating, Barnyardgrass: 100
[11]; [20]
  Barnyardgrass plant response rating: 50
[12]; [21]
  Plant response rating (0 to 100 scale), Crabgrass, Large: 40
[12]; [18]
  Crabgrass, Large plant response rating: 20
[12]; [19]
  Plant response rating, Crabgrass, Large: 100
[12]; [20]
  Crabgrass, Large plant response rating: 50
[13]; [18]
  Oat, Wild plant response rating: 10
[13]; [20]
  Oat, Wild plant response rating: 10
[14]; [18]
  Cocklebur plant response rating: 0
[14]; [19]
  Plant response rating, Cocklebur: 90
[14]; [20]
  Cocklebur plant response rating: 20
[15]; [21]
  Plant response rating (0 to 100 scale), Surinam Grass: 50
[15]; [18]
  Surinam Grass plant response rating: 10
[15]; [19]
  Plant response rating, Surinam Grass: 100
[15]; [20]
  Surinam Grass plant response rating: 40
[16]; [21]
  Plant response rating (0 to 100 scale), Velvetleaf: 100
[16]; [18]
  Velvetleaf plant response rating: 20
[16]; [20]
  Velvetleaf plant response rating: 50

## CCNC(=O)c1cccc(NC(=O)c2nc(C(C)(C)C)nn2CC)c1 [Compound 446, 3-(1,1-dimethylethyl)-1-ethyl-N-[3-[(ethylamino)carbonyl]phenyl]-1H-1,2,4-triazole-5-carboxamide]
[1]; Echinochloa crus-galli, 336 h, 125 g ai/ha, read-out: Barnyardgrass plant response rating
  pest or weed control at 125 g/ha: 70%
[1]; Echinochloa crus-galli, 336 h, 500 g ai/ha, read-out: Barnyardgrass plant response rating
  pest or weed control at 500 g/ha: 90%
[4]; Cyperus difformis, 336 h, 125 g ai/ha, read-out: Sedge, Umbrella plant response rating
  pest or weed control at 125 g/ha: 90%
[4]; Cyperus difformis, 336 h, 500 g ai/ha, read-out: Sedge, Umbrella plant response rating
  pest or weed control at 500 g/ha: 90%
[6]; Heteranthera limosa, 336 h, 125 g ai/ha, read-out: Ducksalad plant response rating
  pest or weed control at 125 g/ha: 70%
[6]; Heteranthera limosa, 336 h, 500 g ai/ha, read-out: Ducksalad plant response rating
  pest or weed control at 500 g/ha: 80%
[8]; Oryza sativa, 336 h, 125 g ai/ha, read-out: Rice plant response rating
  plant injury at 125 g/ha: 80%
[8]; Oryza sativa, 336 h, 500 g ai/ha, read-out: Rice plant response rating
  plant injury at 500 g/ha: 90%
